Laboratory results as given in PubChem BioAssay (NCI).
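How tested: cells in 96-well plates exposed to compound for 48 hours at five concentrations. GI50 = concentration required for 50% inhibition of growth. The concentration for full growth arrest is given as TGI.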

Key:
Assay in all cases: growth of human tumour cells (NCI), 48 h
NCI-H226 lung = test system: NCI-H226 lung
NCI-H23 lung = test system: NCI-H23 lung
NCI-H460 lung = test system: NCI-H460 lung
NCI-H522 lung = test system: NCI-H522 lung
NCI/ADR-RES ovarian = test system: NCI/ADR-RES ovarian
OVCAR-3 ovarian = test system: OVCAR-3 ovarian
OVCAR-4 ovarian = test system: OVCAR-4 ovarian
OVCAR-5 ovarian = test system: OVCAR-5 ovarian
OVCAR-8 ovarian = test system: OVCAR-8 ovarian
PC-3 prostate = test system: PC-3 prostate
RPMI-8226 leukemia = test system: RPMI-8226 leukemia
RXF 393 renal = test system: RXF 393 renal
SF-268 CNS = test system: SF-268 CNS
SF-295 CNS = test system: SF-295 CNS
SF-539 CNS = test system: SF-539 CNS
SK-MEL-2 melanoma = test system: SK-MEL-2 melanoma
SK-MEL-28 melanoma = test system: SK-MEL-28 melanoma
SK-MEL-5 melanoma = test system: SK-MEL-5 melanoma
SK-OV-3 ovarian = test system: SK-OV-3 ovarian
SN12C renal = test system: SN12C renal
SNB-19 CNS = test system: SNB-19 CNS
SNB-75 CNS = test system: SNB-75 CNS
SW-620 colon = test system: SW-620 colon
T-47D breast = test system: T-47D breast
TK-10 renal = test system: TK-10 renal
U251 CNS = test system: U251 CNS
UACC-257 melanoma = test system: UACC-257 melanoma
UACC-62 melanoma = test system: UACC-62 melanoma
UO-31 renal = test system: UO-31 renal

Compound: Cc1oncc1C(=O)Nc1ccc(C(F)(F)F)cc1
- TGI (NCI-H226 lung): > 100 µM
- GI50 (NCI-H23 lung): 42.4 µM
- TGI (NCI-H23 lung): > 100 µM
- GI50 (NCI-H460 lung): 24.8 µM
- TGI (NCI-H460 lung): > 100 µM
- GI50 (NCI-H522 lung): 33.6 µM
- TGI (NCI-H522 lung): > 100 µM
- GI50 (NCI/ADR-RES ovarian): 45.1 µM
- TGI (NCI/ADR-RES ovarian): > 100 µM
- GI50 (OVCAR-3 ovarian): 20.8 µM
- TGI (OVCAR-3 ovarian): 78.7 µM
- GI50 (OVCAR-4 ovarian): 25 µM
- TGI (OVCAR-4 ovarian): > 100 µM
- GI50 (OVCAR-5 ovarian): > 100 µM
- TGI (OVCAR-5 ovarian): > 100 µM
- GI50 (OVCAR-8 ovarian): 17.6 µM
- TGI (OVCAR-8 ovarian): > 100 µM
- GI50 (PC-3 prostate): 13.9 µM
- TGI (PC-3 prostate): > 100 µM
- GI50 (RPMI-8226 leukemia): 17.5 µM
- TGI (RPMI-8226 leukemia): > 100 µM
- GI50 (RXF 393 renal): 23.9 µM
- TGI (RXF 393 renal): > 100 µM
- GI50 (SF-268 CNS): 23 µM
- TGI (SF-268 CNS): > 100 µM
- GI50 (SF-295 CNS): 19.5 µM
- TGI (SF-295 CNS): > 100 µM
- GI50 (SF-539 CNS): 60.3 µM
- TGI (SF-539 CNS): > 100 µM
- GI50 (SK-MEL-2 melanoma): > 100 µM
- TGI (SK-MEL-2 melanoma): > 100 µM
- GI50 (SK-MEL-28 melanoma): 56.7 µM
- TGI (SK-MEL-28 melanoma): > 100 µM
- GI50 (SK-MEL-5 melanoma): 29.3 µM
- TGI (SK-MEL-5 melanoma): > 100 µM
- GI50 (SK-OV-3 ovarian): > 100 µM
- TGI (SK-OV-3 ovarian): > 100 µM
- GI50 (SN12C renal): > 100 µM
- TGI (SN12C renal): > 100 µM
- GI50 (SNB-19 CNS): > 100 µM
- TGI (SNB-19 CNS): > 100 µM
- GI50 (SNB-75 CNS): 23.5 µM
- TGI (SNB-75 CNS): > 100 µM
- GI50 (SW-620 colon): 92.5 µM
- TGI (SW-620 colon): > 100 µM
- GI50 (T-47D breast): 94 µM
- TGI (T-47D breast): > 100 µM
- GI50 (TK-10 renal): > 100 µM
- TGI (TK-10 renal): > 100 µM
- GI50 (U251 CNS): 14.7 µM
- TGI (U251 CNS): > 100 µM
- GI50 (UACC-257 melanoma): 26.9 µM
- TGI (UACC-257 melanoma): > 100 µM
- GI50 (UACC-62 melanoma): 36 µM
- TGI (UACC-62 melanoma): > 100 µM
- GI50 (UO-31 renal): 12.6 µM
- TGI (UO-31 renal): > 100 µM
